# Reference: PubChem BioAssay AID330 (DTP/NCI, 2004)
# “And” between values parts separate entries of the source, which are not always exact repeats. Equal entries are not always repeated. Toxic doses and inconclusive results are not listed.
# Tested on: P388 leukemia ip, CD2F1 mice, survival T/C
# Experiment: NCI In Vivo Anticancer Drug Screen. Data for tumor model P388 Leukemia (intraperitoneal) in CD2F1 (CDF1) mice
# Settings: endpoint: median survival time, higher = longer survival
# Summary of the method: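 Mice carrying the transplanted tumor received test compound or vehicle. Survival was recorded in each group, and the value is the treated-group measurement divided by that of the vehicle-treated control group.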
# [1] = dose: 25.0 mg/kg/injection, schedule: Q01DX009 (ip), vehicle: Klucel (hydroxypropylcellulose) (HPC)
# [2] = dose: 100.0 mg/kg/injection, schedule: Q04DX002 (ip), vehicle: saline
# [3] = dose: 60.0 mg/kg/injection, schedule: Q01DX005 (ip), vehicle: saline with Tween-80
# [4] = dose: 120.0 mg/kg/injection, schedule: Q01DX005 (ip), vehicle: saline with Tween-80
# [5] = dose: 240.0 mg/kg/injection, schedule: Q01DX005 (ip), vehicle: saline with Tween-80
# [6] = dose: 50.0 mg/kg/injection, schedule: Q01DX005 (ip), vehicle: saline with Tween-80
# [7] = dose: 100.0 mg/kg/injection, schedule: Q01DX005 (ip), vehicle: saline with Tween-80
# [8] = dose: 200.0 mg/kg/injection, schedule: Q01DX005 (ip), vehicle: saline with Tween-80
# [9] = dose: 100.0 mg/kg/injection, schedule: Q04DX003 (ip), vehicle: Klucel (hydroxypropylcellulose) (HPC)
# [10] = dose: 200.0 mg/kg/injection, schedule: Q04DX003 (ip), vehicle: Klucel (hydroxypropylcellulose) (HPC)
# [11] = dose: 25.0 mg/kg/injection, schedule: Q01DX009 (ip), vehicle: saline
# [12] = dose: 50.0 mg/kg/injection, schedule: Q01DX009 (ip), vehicle: saline
# [13] = dose: 50.0 mg/kg/injection, schedule: Q01DX001 (ip), vehicle: Klucel (hydroxypropylcellulose) (HPC)
# [14] = dose: 100.0 mg/kg/injection, schedule: Q01DX001 (ip), vehicle: Klucel (hydroxypropylcellulose) (HPC)
# [15] = dose: 200.0 mg/kg/injection, schedule: Q01DX001 (ip), vehicle: Klucel (hydroxypropylcellulose) (HPC)
# [16] = dose: 100.0 mg/kg/injection, schedule: Q04DX002 (ip), vehicle: saline with Tween-80
# [17] = dose: 200.0 mg/kg/injection, schedule: Q04DX002 (ip), vehicle: saline with Tween-80
# [18] = dose: 400.0 mg/kg/injection, schedule: Q04DX002 (ip), vehicle: saline with Tween-80
# [19] = dose: 50.0 mg/kg/injection, schedule: Q01DX009 (ip), vehicle: Klucel (hydroxypropylcellulose) (HPC)
# [20] = dose: 100.0 mg/kg/injection, schedule: Q01DX009 (ip), vehicle: Klucel (hydroxypropylcellulose) (HPC)
# [21] = dose: 200.0 mg/kg/injection, schedule: Q01DX009 (ip), vehicle: Klucel (hydroxypropylcellulose) (HPC)
# [22] = dose: 50.0 mg/kg/injection, schedule: Q01DX009 (ip), vehicle: saline with Tween-80
# [23] = dose: 100.0 mg/kg/injection, schedule: Q01DX009 (ip), vehicle: saline with Tween-80
# [24] = dose: 60.0 mg/kg/injection, schedule: Q01DX005 (ip), vehicle: Klucel (hydroxypropylcellulose) (HPC)
# [25] = dose: 120.0 mg/kg/injection, schedule: Q01DX005 (ip), vehicle: Klucel (hydroxypropylcellulose) (HPC)
# [26] = dose: 240.0 mg/kg/injection, schedule: Q01DX005 (ip), vehicle: Klucel (hydroxypropylcellulose) (HPC)
structure (smiles),measurement,setting,value
C=CCNSc1ccccc1,T/C,"dose: 12.5 mg/kg/injection, schedule: Q01DX009 (ip), vehicle: Klucel (hydroxypropylcellulose) (HPC)",112 % of control
same,T/C,[1],109 % of control
Nc1c(/C=C/c2ccccc2)[nH]c(=O)[nH]c1=O,T/C,"dose: 25.0 mg/kg/injection, schedule: Q04DX002 (ip), vehicle: saline",104 % of control
same,T/C,"dose: 50.0 mg/kg/injection, schedule: Q04DX002 (ip), vehicle: saline",105 % of control
same,T/C,[2],121 % of control and 88 % of control
CC(C)(C)C(=O)Nc1c(Cl)c(C2CC2)nn1-c1ccccc1,T/C,[3],100 % of control
same,T/C,[4],102 % of control
same,T/C,[5],90 % of control
O=C1c2ccccc2C2(c3ccc(O)cc3)c3ccccc3Oc3cccc1c32 (centres undefined),T/C,[6],90 % of control
same,T/C,[7],92 % of control
same,T/C,[8],95 % of control
CC(C)(C)C1CCC=CC(=O)C1 (centres undefined),T/C,[9],105 % of control
same,T/C,[10],113 % of control
C=COC(=O)N(C)C,T/C,[11],110 % of control
same,T/C,[12],118 % of control
same,T/C,"dose: 100.0 mg/kg/injection, schedule: Q01DX009 (ip), vehicle: saline",115 % of control
same,T/C,"dose: 200.0 mg/kg/injection, schedule: Q01DX009 (ip), vehicle: saline",120 % of control
COc1cc(C2c3cc4c(c(OC)c3C(O)C3CC(=O)OC23)OCO4)cc(OC)c1OC (centres undefined),T/C,[3],115 % of control
same,T/C,[4],116 % of control
Cc1ccc(S(=O)(=O)Nc2nnc(-c3coc4ccc(C)cc4c3=O)s2)cc1,T/C,[6],89 % of control
same,T/C,[7],88 % of control
BrCC1(CBr)COC1,T/C,[13],95 % of control
same,T/C,[14],107 % of control
same,T/C,[15],100 % of control
C[C@]12CCNC(=O)C=C1CC[C@@H]1C2CC[C@@]2(C)C1CC[C@@H]2OC(=O)COc1ccc(N(CCCl)CCCl)cc1 (some centres undefined),T/C,[16],159 % of control
same,T/C,[17],199 % of control
same,T/C,[18],225 % of control
CC(C)CC1NC(=O)OC1=O (centres undefined),T/C,[6],98 % of control
same,T/C,[7],94 % of control
same,T/C,[8],91 % of control
CC(C)(C)C(=O)NNc1cccc(Cl)n1,T/C,[13],109 % of control
same,T/C,[14],98 % of control
same,T/C,[15],100 % of control
CC(=O)Oc1c(C)c(OC(C)=O)c2c(c1C(C)=O)OC1=CC(O)=C(C(C)=O)C(=O)C12C (centres undefined),T/C,"dose: 6.25 mg/kg/injection, schedule: Q01DX009 (ip), vehicle: gum acacia",98 % of control and 102 % of control
same,T/C,"dose: 12.5 mg/kg/injection, schedule: Q01DX009 (ip), vehicle: gum acacia",104 % of control and 105 % of control
same,T/C,"dose: 25.0 mg/kg/injection, schedule: Q01DX009 (ip), vehicle: gum acacia",100 % of control and 102 % of control
same,T/C,"dose: 50.0 mg/kg/injection, schedule: Q01DX009 (ip), vehicle: gum acacia",102 % of control and 110 % of control
same,T/C,"dose: 100.0 mg/kg/injection, schedule: Q01DX009 (ip), vehicle: gum acacia",113 % of control and 115 % of control
same,T/C,[16],97 % of control
same,T/C,[17],102 % of control
same,T/C,[18],101 % of control
CCOC(=O)c1cc(Cl)cc2c(=O)c3c(O)c4[nH]c5c(C(=O)OCC)cc(Cl)cc5c(=O)c4c(O)c3[nH]c12,T/C,[19],97 % of control
same,T/C,[20],106 % of control
Clc1nc(-c2ccccc2)nc(-c2ccccc2)n1,T/C,[2],104 % of control
same,T/C,"dose: 200.0 mg/kg/injection, schedule: Q04DX002 (ip), vehicle: saline",100 % of control
same,T/C,"dose: 400.0 mg/kg/injection, schedule: Q04DX002 (ip), vehicle: saline",109 % of control
Cc1cc2c(cc1C)n1c(=O)n(C)c(=O)c(C#N)c1n2C,T/C,"dose: 7.5 mg/kg/injection, schedule: Q01DX005 (ip), vehicle: saline with Tween-80",100 % of control
same,T/C,"dose: 15.0 mg/kg/injection, schedule: Q01DX005 (ip), vehicle: saline with Tween-80",101 % of control
Fc1ccc(CN2COc3c(ccc4cccnc34)C2)cc1,T/C,[9],96 % of control
same,T/C,[10],97 % of control
same,T/C,"dose: 400.0 mg/kg/injection, schedule: Q04DX003 (ip), vehicle: Klucel (hydroxypropylcellulose) (HPC)",94 % of control
COC(=O)C12CN(C)CC(C(=O)OC)(C1=O)C(c1ccccn1)N(C)C2c1ccccn1 (centres undefined),T/C,[3],100 % of control
same,T/C,[4],98 % of control
same,T/C,[5],98 % of control
CCCCCCCCN1CCS(=O)(=O)CC1,T/C,[19],89 % of control
same,T/C,[20],94 % of control
same,T/C,[21],93 % of control
O=C1C(Cl)=C(N=Nc2c(Cl)c(O)c3ccccc3c2O)C(=O)c2ccccc21,T/C,"dose: 1.56 mg/kg/injection, schedule: Q01DX009 (ip), vehicle: saline",101 % of control and 111 % of control
same,T/C,"dose: 3.12 mg/kg/injection, schedule: Q01DX009 (ip), vehicle: saline",103 % of control and 108 % of control
same,T/C,"dose: 6.25 mg/kg/injection, schedule: Q01DX009 (ip), vehicle: saline",108 % of control and 109 % of control
same,T/C,"dose: 12.5 mg/kg/injection, schedule: Q01DX009 (ip), vehicle: saline",107 % of control and 117 % of control
same,T/C,[11],102 % of control and 109 % of control
same,T/C,"dose: 25.0 mg/kg/injection, schedule: Q01DX010 (ip), vehicle: saline",109 % of control
same,T/C,[12],90 % of control and 97 % of control
same,T/C,"dose: 50.0 mg/kg/injection, schedule: Q01DX010 (ip), vehicle: saline",100 % of control
same,T/C,"dose: 100.0 mg/kg/injection, schedule: Q01DX010 (ip), vehicle: saline",109 % of control
NNC(=O)c1ccc(N)cc1,T/C,[22],100 % of control
same,T/C,"dose: 50.0 mg/kg/injection, schedule: Q04DX003 (ip), vehicle: saline with Tween-80",104 % of control
same,T/C,[23],100 % of control
same,T/C,"dose: 100.0 mg/kg/injection, schedule: Q04DX003 (ip), vehicle: saline with Tween-80",104 % of control
same,T/C,"dose: 200.0 mg/kg/injection, schedule: Q01DX009 (ip), vehicle: saline with Tween-80",100 % of control
CSc1ncc(C=O)n1Cc1ccccc1,T/C,"dose: 17.5 mg/kg/injection, schedule: Q01DX005 (ip), vehicle: Klucel (hydroxypropylcellulose) (HPC)",115 % of control
same,T/C,"dose: 35.0 mg/kg/injection, schedule: Q01DX005 (ip), vehicle: Klucel (hydroxypropylcellulose) (HPC)",98 % of control
same,T/C,"dose: 70.0 mg/kg/injection, schedule: Q01DX005 (ip), vehicle: Klucel (hydroxypropylcellulose) (HPC)",101 % of control
Cc1ccccc1NP1(=O)OCCCN1Cc1ccccc1Cl (centres undefined),T/C,[6],99 % of control
same,T/C,[7],93 % of control
same,T/C,[8],93 % of control
O=c1cc(O)nc2nc(-c3ccccc3)c(-c3ccccc3)nn12,T/C,"dose: 50.0 mg/kg/injection, schedule: Q01DX005 (ip), vehicle: Klucel (hydroxypropylcellulose) (HPC)",101 % of control
same,T/C,"dose: 100.0 mg/kg/injection, schedule: Q01DX005 (ip), vehicle: Klucel (hydroxypropylcellulose) (HPC)",93 % of control
same,T/C,"dose: 200.0 mg/kg/injection, schedule: Q01DX005 (ip), vehicle: Klucel (hydroxypropylcellulose) (HPC)",93 % of control
CCOC(=O)C(CC/C=C(\C)CC/C=C/COC(=O)N(C(C)C)C(C)C)P(=O)(OCC)OCC (centres undefined),T/C,[6],109 % of control
same,T/C,[7],106 % of control
same,T/C,[8],109 % of control
CCOC(=O)C1=CC(C(=O)OCC)=C2C=CC=C3C=CC=C1N32,T/C,[3],93 % of control
same,T/C,[4],90 % of control
same,T/C,[5],88 % of control
O=[N+]([O-])c1ccc(Nc2cn[nH]n2)cc1,T/C,[24],100 % of control
same,T/C,[25],102 % of control
same,T/C,[26],99 % of control
O=c1[nH]c2ccccc2nc1Cl,T/C,"dose: 25.0 mg/kg/injection, schedule: Q01DX009 (ip), vehicle: saline with Tween-80",100 % of control
same,T/C,[22],98 % of control
same,T/C,[23],97 % of control
COc1ccc(-c2cc(-c3ccccc3)[nH]c(=O)c2N(C)C)cc1,T/C,[1],90 % of control
same,T/C,[19],89 % of control
same,T/C,[20],89 % of control
same,T/C,[21],86 % of control
OCC(CCc1c[nH]c2ccccc12)c1c[nH]c2ccccc12 (centres undefined),T/C,[24],90 % of control
same,T/C,[25],90 % of control
same,T/C,[26],93 % of control
